Measured values taken from US9931329B2, “Phenyl triazole derivative and its use for modulating the GABAA receptor complex” (SANIONA A/S, priority 2012, dated 2018).
pKi: −log10 of the molar value.

Assays:
[1] = biological target: T1, human GABAA α5β3*γ2S receptor (Homo sapiens, UniProt P18507+P31644); assay: In vitro inhibition of 3H-flumazenil binding, HEK cells expressing human GABAA α5β3*γ2S receptor
T1 construct: expressed in transfected cells
Method: When the cultures reach confluency, the DMEM is removed and the cells are washed (10 ml for T175 flasks; 50 ml for roller bottles) once in Dulbecco's Phosphate Buffered Saline (DPBS). Following addition of DPBS to the cultures (10 ml for T175 flasks; 100 ml for roller bottles) for approximately 5 min cells are easily detached from the surface by shaking or tapping the flask gently. The cell suspension is transferred to Falcon tubes and centrifuged at 23,500×g for 10 min at 2° C. The pellet is washed once in 15 ml Tris-citrate buffer (50 mM, pH 7.1) using an Ultra-Turrax homogenizer and centrifuged at 2° C. for 10 min at 27,000×g. The washed pellet is re-suspended in 15 ml Tris-citrate buffer and frozen at −80° C. until the day of the binding experiment.
On the day of the experiment the cell membrane preparation is thawed and centrifuged at 2° C. for 10 min at 27,000×g.
Non-specific binding is determined using clonazepam (1 μM, final concentration). […]
The amount of radioactivity on the filters is determined by conventional liquid scintillation counting using a […]
where B is the binding in percentage of total specific binding; C is the concentration of test compound; and n is the Hill coefficient. […] The IC50 value is calculated from the concentration response curves by the non-linear regression method using the curve-fitting program GraphPad Prism.

T1 sequence (P31644 32-462): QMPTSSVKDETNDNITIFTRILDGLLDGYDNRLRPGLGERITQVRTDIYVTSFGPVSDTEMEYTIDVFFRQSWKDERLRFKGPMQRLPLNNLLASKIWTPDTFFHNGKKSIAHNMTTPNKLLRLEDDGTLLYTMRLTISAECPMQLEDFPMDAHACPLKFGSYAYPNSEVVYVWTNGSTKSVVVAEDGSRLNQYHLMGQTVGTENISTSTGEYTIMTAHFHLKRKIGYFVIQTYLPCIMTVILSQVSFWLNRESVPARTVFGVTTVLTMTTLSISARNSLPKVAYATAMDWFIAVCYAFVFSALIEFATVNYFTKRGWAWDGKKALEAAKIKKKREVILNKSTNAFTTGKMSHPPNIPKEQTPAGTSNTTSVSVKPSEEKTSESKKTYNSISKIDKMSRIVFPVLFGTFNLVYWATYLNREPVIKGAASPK
T1 sequence (P18507 40-467 isoform P18507-1 limits assumed): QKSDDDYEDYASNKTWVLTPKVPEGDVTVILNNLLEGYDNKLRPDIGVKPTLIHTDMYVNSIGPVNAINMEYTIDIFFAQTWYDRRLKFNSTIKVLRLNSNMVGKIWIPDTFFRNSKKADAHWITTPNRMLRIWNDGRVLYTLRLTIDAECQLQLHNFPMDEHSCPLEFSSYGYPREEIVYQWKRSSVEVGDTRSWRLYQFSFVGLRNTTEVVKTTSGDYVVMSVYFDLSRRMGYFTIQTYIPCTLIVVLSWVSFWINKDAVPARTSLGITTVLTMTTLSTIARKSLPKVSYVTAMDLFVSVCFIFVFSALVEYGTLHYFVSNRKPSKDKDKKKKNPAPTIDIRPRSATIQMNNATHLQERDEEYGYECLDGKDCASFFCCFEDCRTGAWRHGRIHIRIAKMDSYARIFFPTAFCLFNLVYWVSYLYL

pKi [1]: 7.70 | melting point: 178 to 181.5 °C
SMILES: Cn1nnc(-c2ccccc2F)c1COc1ccc(-n2cnc(C#N)c2)cn1 [Compound 7, 1-{6-[5-(2-Fluoro-phenyl)-3-methyl-3H-[1,2,3]triazol-4-ylmethoxy]-pyridin-3-yl}-1H-imidazole-4-carbonitrile]
